The source of these data is US9102623B2, “Pyridinecarboxamides, useful-plant-protecting composition comprising them and processes for their preparation and their use” (Bayer Cropscience AG, priority 2007, dated 2015).

Assay [1] relates to corn. Put plainly: Post-emergence safener action in corn with the herbicide tembotrione. The format is in vivo. Conditions: greenhouse, visual scoring of damage. An excerpt:
(§1) The damage to the plants is scored visually using a scale of 0-100%, in comparison to control plants:
(§2) 0%=no noticeable effect compared to the untreated plant
(§3) 100%=the treated plants dies.
(§4) Seeds or rhizome pieces of monocotyledonous and dicotyledonous harmful plants and crop plants are placed in sandy loam soil in plastic pots, covered with soil and cultivated in the greenhouse under good growth conditions. Alternatively, harmful plants encountered in paddy rice cultivation are cultivated in pots in which the surface of the soil is covered by up to 2 cm of water. Three weeks after sowing, the test plants are treated at the three-leaf stage. The herbicide/safener active compound combinations according to the invention, formulated as emulsion concentrates, and in parallel tests the individual active compounds formulated in a corresponding manner, are sprayed at various dosages at a water application rate of […] (converted) onto the green parts of the plants, and, after the test plants were left to stand in the greenhouse for about 2 to 3 weeks under optimum growth conditions, the effect of the preparations is scored visually in comparison to untreated controls. In the case of rice or harmful plants encountered in the cultivation of rice, the active compounds are also added directly to the irrigation water (application analogously to the so-called granule application) or sprayed onto the plants and into the irrigation water. […]

Assay [2] has as its system barley. The experiment in a line: Post-emergence safener action in barley with the herbicide mesosulfuron-methyl. The format is in vivo. Conditions: greenhouse, visual scoring of damage.
Source text: as §1, §2, §3, §4

For the molecule `CC(C)NC(=O)c1ccc(C(F)(F)F)[nH]c1=O` [Compound 4], in assay [1], the “safener action for the herbicide tembotrione” value is recorded as “good safener action”. The same measure, in the same setting: the same measure for `CCCCNC(=O)c1ccc(C(F)(F)F)[nH]c1=O` [Compound 6]: “good safener action”. With `CN(C)C(=O)c1ccc(C(F)(F)F)[nH]c1=O` [Compound 9], in assay [2], the “safener action for the herbicide mesosulfuron-methyl” value is recorded as “good safener action”. Besides, the “safener action for the herbicide tembotrione” value in assay [1] is reported as “good safener action”.

With `CCN(C)C(=O)c1ccc(C(F)(F)F)[nH]c1=O` [Compound 10], in assay [2], the “safener action for the herbicide mesosulfuron-methyl” value is “good safener action”. In addition, in assay [1], the “safener action for the herbicide tembotrione” value was “good safener action”. Turning to `CCN(CC)C(=O)c1ccc(C(F)(F)F)[nH]c1=O` [Compound 14], the “safener action for the herbicide mesosulfuron-methyl” value in assay [2] is reported as “good safener action”. In addition, the “safener action for the herbicide tembotrione” value in assay [1] is “good safener action”. On to `CC(C)(C)CNC(=O)c1ccc(C(F)(F)F)[nH]c1=O` [Compound 24], for which, in assay [1], the “safener action for the herbicide tembotrione” value is “good safener action”. Same read-out and setting: the same measure for `CC(C)CCNC(=O)c1ccc(C(F)(F)F)[nH]c1=O` [Compound 32]: “good safener action”. For the molecule `C=CCNC(=O)c1ccc(C(F)(F)F)[nH]c1=O` [Compound 34], in assay [2], the “safener action for the herbicide mesosulfuron-methyl” value is “good safener action”. Besides, the “safener action for the herbicide tembotrione” value in assay [1] is recorded as “good safener action”.

`C=CCN(CC=C)C(=O)c1ccc(C(F)(F)F)[nH]c1=O` [Compound 36]: the “safener action for the herbicide mesosulfuron-methyl” value in assay [2] was “good safener action”. Further, in assay [1], the “safener action for the herbicide tembotrione” value is on record as “good safener action”. With `CCCC(C)NC(=O)c1ccc(C(F)(F)F)[nH]c1=O` (stereo not drawn) [Compound 43], the “safener action for the herbicide tembotrione” value in assay [1] was “good safener action”. In the case of `CCC(CC)NC(=O)c1ccc(C(F)(F)F)[nH]c1=O` [Compound 51], the “safener action for the herbicide tembotrione” value in assay [1] is listed as “good safener action”.

With `COCC(C)NC(=O)c1ccc(C(F)(F)F)[nH]c1=O` (stereo not drawn) [Compound 64], the “safener action for the herbicide mesosulfuron-methyl” value in assay [2] is listed as “good safener action”. Moreover, the “safener action for the herbicide tembotrione” value in assay [1] is recorded as “good safener action”. Turning to `COCCCNC(=O)c1ccc(C(F)(F)F)[nH]c1=O` [Compound 66], the “safener action for the herbicide mesosulfuron-methyl” value in assay [2] is “good safener action”. The “safener action for the herbicide tembotrione” value in assay [1] is “good safener action”. `COC(=O)CNC(=O)c1ccc(C(F)(F)F)[nH]c1=O` [Compound 71]: the “safener action for the herbicide tembotrione” value in assay [1] is “good safener action”. Still for that read-out and setting: the same measure for `COC(=O)CCNC(=O)c1ccc(C(F)(F)F)[nH]c1=O` [Compound 75]: “good safener action”.

Take `CCONC(=O)c1ccc(C(F)(F)F)[nH]c1=O` [Compound 79]: in assay [2], the “safener action for the herbicide mesosulfuron-methyl” value is reported as “good safener action”. In addition, in assay [1], the “safener action for the herbicide tembotrione” value was “good safener action”. Take `O=C(NCc1ccc(Cl)nc1)c1ccc(C(F)(F)F)[nH]c1=O` [Compound 95]: in assay [1], the “safener action for the herbicide tembotrione” value is on record as “good safener action”. For `CN(C)/C=N/C(=O)c1ccc(C(F)(F)F)[nH]c1=O` [Compound 105, N-[(Dimethylamino)methylene]-2-oxo-6-(trifluoromethyl)-1,2-dihydropyridine-3-carboxamide], in assay [2], the “safener action for the herbicide mesosulfuron-methyl” value was “good safener action”. The “safener action for the herbicide tembotrione” value in assay [1] is “good safener action”. For `NC(=O)c1ccc(C(F)(F)Cl)[nH]c1=O` [Compound 114], in assay [2], the “safener action for the herbicide mesosulfuron-methyl” value is reported as “good safener action”. In assay [1], the “safener action for the herbicide tembotrione” value is “good safener action”. As for `CC(C)NC(=O)c1ccc(C(F)(F)Cl)[nH]c1=O` [Compound 118], the “safener action for the herbicide tembotrione” value in assay [1] was “good safener action”. `O=C(NCC(F)(F)F)c1ccc(C(F)(F)Cl)[nH]c1=O` [Compound 140]: in assay [2], the “safener action for the herbicide mesosulfuron-methyl” value was “good safener action”. The “safener action for the herbicide tembotrione” value in assay [1] is recorded as “good safener action”. On to `CC(C)CCNC(=O)c1ccc(C(F)(F)Cl)[nH]c1=O` [Compound 146], for which, in assay [2], the “safener action for the herbicide mesosulfuron-methyl” value is listed as “good safener action”. The “safener action for the herbicide tembotrione” value in assay [1] was “good safener action”. On to `C=CCNC(=O)c1ccc(C(F)(F)Cl)[nH]c1=O` [Compound 148], for which the “safener action for the herbicide mesosulfuron-methyl” value in assay [2] was “good safener action”. Also, in assay [1], the “safener action for the herbicide tembotrione” value was “good safener action”.

For `C#CCNC(=O)c1ccc(C(F)(F)Cl)[nH]c1=O` [Compound 153], the “safener action for the herbicide mesosulfuron-methyl” value in assay [2] is listed as “good safener action”. For the same molecule, the “safener action for the herbicide tembotrione” value in assay [1] is “good safener action”. As for `CCOC(CNC(=O)c1ccc(C(F)(F)Cl)[nH]c1=O)OCC` [Compound 169], in assay [2], the “safener action for the herbicide mesosulfuron-methyl” value is listed as “good safener action”. In assay [1], the “safener action for the herbicide tembotrione” value is reported as “good safener action”. As to `COCC(C)NC(=O)c1ccc(C(F)(F)Cl)[nH]c1=O` (stereo not drawn) [Compound 178], the “safener action for the herbicide mesosulfuron-methyl” value in assay [2] is listed as “good safener action”. Further, in assay [1], the “safener action for the herbicide tembotrione” value is listed as “good safener action”. Turning to `CC(NC(=O)c1ccc(C(F)(F)Cl)[nH]c1=O)c1ccccc1` (stereo not drawn) [Compound 210], in assay [1], the “safener action for the herbicide tembotrione” value is recorded as “good safener action”. In the case of `O=C(c1ccc(C(F)(F)Cl)[nH]c1=O)N1CCOCC1` [Compound 214], the “safener action for the herbicide mesosulfuron-methyl” value in assay [2] is given as “good safener action”. Moreover, the “safener action for the herbicide tembotrione” value in assay [1] is “good safener action”. For `CC(C)NC(=O)c1ccc(C(F)(F)C(F)(F)F)[nH]c1=O` [Compound 345], in assay [2], the “safener action for the herbicide mesosulfuron-methyl” value is given as “good safener action”. The “safener action for the herbicide tembotrione” value in assay [1] is “good safener action”. Take `CNC(=O)c1cc(Cl)c(C(F)(F)F)[nH]c1=O` [Compound 456]: the “safener action for the herbicide tembotrione” value in assay [1] is “good safener action”. As for `CCNC(=O)c1cc(Cl)c(C(F)(F)F)[nH]c1=O` [Compound 457], the “safener action for the herbicide mesosulfuron-methyl” value in assay [2] is on record as “good safener action”. In addition, the “safener action for the herbicide tembotrione” value in assay [1] is given as “good safener action”.

Consider `C=CCNC(=O)c1cc(Cl)c(C(F)(F)F)[nH]c1=O` [Compound 489], for which the “safener action for the herbicide mesosulfuron-methyl” value in assay [2] is recorded as “good safener action”. For the same molecule, the “safener action for the herbicide tembotrione” value in assay [1] is “good safener action”. As to `CCC(C)NC(=O)c1cc(Cl)c(C(F)(F)F)[nH]c1=O` (stereo not drawn) [Compound 496], the “safener action for the herbicide mesosulfuron-methyl” value in assay [2] is “good safener action”. Moreover, in assay [1], the “safener action for the herbicide tembotrione” value was “good safener action”. With `CCCC(C)NC(=O)c1cc(Cl)c(C(F)(F)F)[nH]c1=O` (stereo not drawn) [Compound 498], the “safener action for the herbicide mesosulfuron-methyl” value in assay [2] is recorded as “good safener action”. The “safener action for the herbicide tembotrione” value in assay [1] is “good safener action”. Take `NC(=O)c1cc(Br)c(C(F)(F)F)[nH]c1=O` [Compound 909]: in assay [2], the “safener action for the herbicide mesosulfuron-methyl” value is on record as “good safener action”. The “safener action for the herbicide tembotrione” value in assay [1] is reported as “good safener action”. For the molecule `CCNC(=O)c1cc(Br)c(C(F)F)[nH]c1=O` [Compound 1139], the “safener action for the herbicide tembotrione” value in assay [1] is recorded as “good safener action”. Still for that read-out and setting: as for `CC(C)NC(=O)c1ccc(C(F)(F)C(F)F)[nH]c1=O` [Compound 1371], the entry is “good safener action”.

As to `NC(=O)c1ccc(C(F)(F)C(F)(F)Cl)[nH]c1=O` [Compound 1481, 6-(2-Chloro-1,1,2,2-tetrafluoroethyl)-2-oxo-1,2-dihydropyridine-3-carboxamide], the “safener action for the herbicide mesosulfuron-methyl” value in assay [2] is recorded as “good safener action”. Regarding `CC(C)NC(=O)c1ccc(C(F)(F)C(F)(F)Cl)[nH]c1=O` [Compound 1485], the “safener action for the herbicide tembotrione” value in assay [1] is on record as “good safener action”. With `CCCCNC(=O)c1ccc(C(F)(F)C(F)(F)Cl)[nH]c1=O` [Compound 1487], in assay [2], the “safener action for the herbicide mesosulfuron-methyl” value was “good safener action”.

For `O=C(NC1CCC1)c1ccc(C(F)(F)C(F)(F)Cl)[nH]c1=O` [Compound 1488], in assay [1], the “safener action for the herbicide tembotrione” value is reported as “good safener action”. On the same count and under the same terms, as for `CNC(=O)c1ccc(C(F)(F)C(F)(F)C(F)(F)F)[nH]c1=O` [Compound 1596], the entry is “good safener action”; as for `CN(C)C(=O)c1ccc(C(F)(F)C(F)(F)C(F)(F)F)[nH]c1=O` [Compound 1604], “good safener action”; as for `CC(C)(C)CNC(=O)c1ccc(C(F)(F)C(F)(F)C(F)(F)F)[nH]c1=O` [Compound 1619], “good safener action”. The same measure, in the same setting: as for `C=CCNC(=O)c1ccc(C(F)(F)C(F)(F)C(F)(F)F)[nH]c1=O` [Compound 1629], the entry is “good safener action”; as for `CCCC(C)NC(=O)c1ccc(C(F)(F)C(F)(F)C(F)(F)F)[nH]c1=O` (stereo not drawn) [Compound 1638], “good safener action”; as for `CCC(CC)NC(=O)c1ccc(C(F)(F)C(F)(F)C(F)(F)F)[nH]c1=O` [Compound 1646], “good safener action”.

Turning to `O=C(NC1CCC1)c1cc(Br)c(C(F)(F)C(F)(F)C(F)(F)F)[nH]c1=O` [Compound 1758], the “safener action for the herbicide tembotrione” value in assay [1] was “good safener action”. Regarding `CCC(CC)NC(=O)c1cc(I)c(C(F)(F)Cl)[nH]c1=O` [Compound 1907, 6-[Chloro(difluoro)methyl]-N-(1-ethylpropyl)-5-iodo-2-oxo-1,2-dihydropyridine-3-carboxamide], the “safener action for the herbicide mesosulfuron-methyl” value in assay [2] is “good safener action”.
